Key:
Format in all cases: binding
SHM4 [1] = target: T1, SHM4 (Arabidopsis thaliana, UniProt O23254); assay: UV photo-crosslinking, anti-SA immunoblot; conditions: 50 uM 4AzSA, PBS, on ice, 254 nm UV; covalent; competed by SA
T1 construct: N-terminal His6 (pET28a), from E. coli
T1 sequence (O23254 1-471): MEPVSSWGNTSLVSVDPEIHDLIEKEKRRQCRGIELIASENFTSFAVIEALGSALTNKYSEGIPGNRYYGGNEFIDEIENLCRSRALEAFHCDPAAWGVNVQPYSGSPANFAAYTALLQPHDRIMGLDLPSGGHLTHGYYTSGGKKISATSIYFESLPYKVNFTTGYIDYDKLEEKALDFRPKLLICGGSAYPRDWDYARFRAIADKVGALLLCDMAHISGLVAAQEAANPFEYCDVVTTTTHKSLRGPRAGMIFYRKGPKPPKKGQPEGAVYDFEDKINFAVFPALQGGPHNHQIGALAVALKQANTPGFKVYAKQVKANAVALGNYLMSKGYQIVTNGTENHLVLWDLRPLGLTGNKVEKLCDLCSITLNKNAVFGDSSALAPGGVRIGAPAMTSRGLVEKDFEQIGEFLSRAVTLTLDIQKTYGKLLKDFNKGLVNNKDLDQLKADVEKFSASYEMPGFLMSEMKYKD

UGE2 [2] = target: T2, UGE2 (Arabidopsis thaliana, UniProt Q9T0A7); assay: UV photo-crosslinking, anti-SA immunoblot; conditions: 50 uM 4AzSA, PBS, on ice, 254 nm UV; covalent; competed by SA
T2 construct: N-terminal His6 (pET28a), from E. coli
T2 sequence (Q9T0A7 1-350): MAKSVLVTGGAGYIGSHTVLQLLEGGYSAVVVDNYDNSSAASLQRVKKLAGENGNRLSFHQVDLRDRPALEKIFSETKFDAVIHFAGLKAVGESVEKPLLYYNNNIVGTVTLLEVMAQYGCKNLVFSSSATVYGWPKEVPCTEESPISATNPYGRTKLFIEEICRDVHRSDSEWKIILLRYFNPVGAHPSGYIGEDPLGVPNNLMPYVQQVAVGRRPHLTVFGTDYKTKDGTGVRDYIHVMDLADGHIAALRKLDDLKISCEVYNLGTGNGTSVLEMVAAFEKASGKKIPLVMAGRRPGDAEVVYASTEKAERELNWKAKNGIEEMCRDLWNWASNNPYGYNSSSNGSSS

RBCS1A [3] = target: T3, RBCS1A (Arabidopsis thaliana, UniProt P10795); assay: UV photo-crosslinking, anti-SA immunoblot; conditions: 50 uM 4AzSA, PBS, on ice, 254 nm UV; covalent; competed by SA
T3 construct: gene RBCS-1A; small subunit alone, N-terminal His6 (pET28a), from E. coli

SHM4 [4] = target: T1, SHM4; assay: SPR competition on 3AESA chip; competition of 4AzSA photo-crosslinking; conditions: 1-5 mM SA, HBS-EP pH 7.4 (SPR); competes with 3AESA and 4AzSA
TPPII = target: T4, TPPII (Arabidopsis thaliana, UniProt F4JVN6); assay: as above; conditions: 1-5 mM SA, HBS-EP pH 7.4 (SPR); competes with 3AESA and 4AzSA
T4 construct: gene TPP2; N-terminal His6 (pET28a), from E. coli
T4 sequence (F4JVN6 1-1380): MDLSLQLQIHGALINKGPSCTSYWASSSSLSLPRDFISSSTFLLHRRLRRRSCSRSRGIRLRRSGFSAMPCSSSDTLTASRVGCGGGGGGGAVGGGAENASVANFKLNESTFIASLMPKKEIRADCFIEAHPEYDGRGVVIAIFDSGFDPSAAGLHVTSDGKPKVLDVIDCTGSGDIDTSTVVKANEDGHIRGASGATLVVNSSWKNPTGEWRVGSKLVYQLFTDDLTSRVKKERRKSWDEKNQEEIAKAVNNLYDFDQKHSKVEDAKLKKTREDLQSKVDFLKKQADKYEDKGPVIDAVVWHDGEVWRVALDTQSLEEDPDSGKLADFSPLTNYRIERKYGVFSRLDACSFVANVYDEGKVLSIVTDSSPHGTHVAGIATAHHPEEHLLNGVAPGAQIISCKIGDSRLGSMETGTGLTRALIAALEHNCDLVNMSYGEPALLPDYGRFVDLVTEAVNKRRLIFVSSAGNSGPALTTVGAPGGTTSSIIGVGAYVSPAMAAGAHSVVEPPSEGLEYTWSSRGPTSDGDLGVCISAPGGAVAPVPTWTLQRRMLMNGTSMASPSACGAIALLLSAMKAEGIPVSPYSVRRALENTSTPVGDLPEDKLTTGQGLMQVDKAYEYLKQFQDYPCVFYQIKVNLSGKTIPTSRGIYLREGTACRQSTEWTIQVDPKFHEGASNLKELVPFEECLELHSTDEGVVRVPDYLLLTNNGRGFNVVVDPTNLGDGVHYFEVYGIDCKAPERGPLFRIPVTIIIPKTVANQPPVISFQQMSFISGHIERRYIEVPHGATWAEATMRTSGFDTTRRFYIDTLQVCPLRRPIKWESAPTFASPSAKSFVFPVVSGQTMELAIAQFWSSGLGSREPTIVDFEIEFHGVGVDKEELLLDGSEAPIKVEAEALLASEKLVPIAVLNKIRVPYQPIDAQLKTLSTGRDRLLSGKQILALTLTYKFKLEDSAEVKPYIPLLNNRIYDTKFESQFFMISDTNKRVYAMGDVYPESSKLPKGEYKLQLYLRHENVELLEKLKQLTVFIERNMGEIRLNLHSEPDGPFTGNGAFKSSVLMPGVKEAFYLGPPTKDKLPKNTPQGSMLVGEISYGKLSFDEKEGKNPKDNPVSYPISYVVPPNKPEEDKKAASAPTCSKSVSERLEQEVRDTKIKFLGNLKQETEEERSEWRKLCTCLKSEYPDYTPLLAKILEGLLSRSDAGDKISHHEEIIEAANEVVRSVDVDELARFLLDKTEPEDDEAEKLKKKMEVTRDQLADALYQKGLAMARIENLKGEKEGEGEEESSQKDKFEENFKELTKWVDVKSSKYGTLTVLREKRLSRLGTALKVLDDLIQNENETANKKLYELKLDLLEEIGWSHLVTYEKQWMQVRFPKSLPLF

TRX-m1 = target: T5, TRX-m1 (Arabidopsis thaliana, UniProt O48737); assay: as above; conditions: 1-5 mM SA, HBS-EP pH 7.4 (SPR); competes with 3AESA and 4AzSA
T5 construct: gene At1g03680; N-terminal His6 (pET28a), from E. coli
T5 sequence (O48737 49-179): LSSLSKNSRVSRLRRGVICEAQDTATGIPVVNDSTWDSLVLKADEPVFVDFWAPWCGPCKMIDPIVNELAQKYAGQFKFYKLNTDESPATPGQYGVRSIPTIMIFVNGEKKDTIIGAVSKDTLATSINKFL

UGE2 [5] = target: T2, UGE2; assay: as above; conditions: 1-5 mM SA, HBS-EP pH 7.4 (SPR); competes with 3AESA and 4AzSA
RBCS1A [6] = target: T3, RBCS1A; assay: as above; conditions: 1-5 mM SA, HBS-EP pH 7.4 (SPR); competes with 3AESA and 4AzSA

| SMILES | UV photo-crosslinking, anti-SA immunoblot (SHM4 [1]) | UV photo-crosslinking, anti-SA immunoblot (UGE2 [2]) | UV photo-crosslinking, anti-SA immunoblot (RBCS1A [3]) | SPR competition on 3AESA chip; competition of 4AzSA photo-crosslinking (SHM4 [4]) | SPR competition on 3AESA chip; competition of 4AzSA photo-crosslinking (TPPII) | SPR competition on 3AESA chip; competition of 4AzSA photo-crosslinking (TRX-m1) | SPR competition on 3AESA chip; competition of 4AzSA photo-crosslinking (UGE2 [5]) | SPR competition on 3AESA chip; competition of 4AzSA photo-crosslinking (RBCS1A [6]) |
| --- | --- | --- | --- | --- | --- | --- | --- | --- |
| [N-]=[N+]=Nc1ccc(C(=O)O)c(O)c1 [4AzSA] | These five proteins also bound and crosslinked to 4AzSA | bound 3AESA and crosslinked to 4AzSA in an SA-inhibitable manner, indicating that they are SABPs | bound 3AESA and crosslinked to 4AzSA in an SA-inhibitable manner, indicating that they are SABPs |  |  |  |  |  |
| O=C(O)c1ccccc1O [SA] |  |  |  | SA competes with 3AESA and 4AzSA for binding by TRX-m1, TPPII, SHM4, and LOX2 | SA competes with 3AESA and 4AzSA for binding by TRX-m1, TPPII, SHM4, and LOX2 | SA competes with 3AESA and 4AzSA for binding by TRX-m1, TPPII, SHM4, and LOX2 | bound 3AESA and crosslinked to 4AzSA in an SA-inhibitable manner, indicating that they are SABPs | bound 3AESA and crosslinked to 4AzSA in an SA-inhibitable manner, indicating that they are SABPs |
